Results taken from patent US20140135310A1, “SULPHONAMIDE DERIVATIVES OF ALICYCLIC AMINES FOR THE TREATMENT OF CENTRAL NERVOUS SYSTEM DISEASES” (Adamed Sp. z o.o., priority 2011, published 2014).
Like-named read-outs stand apart in the source and are kept apart here.

Columns and labels:
[1] = target: T1, 5-HT1A receptor (rat hippocampus) (Rattus norvegicus, UniProt P19327); test: Radioligand binding assay, serotoninergic 5-HT1A receptors; conditions: binding assay result in %, Table 5a
T1 construct: hippocampus; from tissue; host or cells: rat hippocampus
T1 sequence (P19327 1-422): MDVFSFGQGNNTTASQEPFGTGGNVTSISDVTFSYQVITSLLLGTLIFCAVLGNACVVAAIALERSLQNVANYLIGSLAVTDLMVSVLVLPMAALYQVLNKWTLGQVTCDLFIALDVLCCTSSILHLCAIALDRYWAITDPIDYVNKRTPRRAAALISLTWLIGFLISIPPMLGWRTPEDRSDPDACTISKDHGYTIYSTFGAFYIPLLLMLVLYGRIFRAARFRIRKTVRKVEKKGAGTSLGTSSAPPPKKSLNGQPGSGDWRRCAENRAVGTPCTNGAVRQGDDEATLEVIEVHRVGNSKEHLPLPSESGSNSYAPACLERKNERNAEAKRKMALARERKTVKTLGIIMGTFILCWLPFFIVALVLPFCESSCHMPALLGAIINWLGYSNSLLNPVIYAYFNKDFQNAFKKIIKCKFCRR

5-HT7 receptor = target: T2, 5-HT7 receptor (Homo sapiens, UniProt P34969); test: Radioligand binding assay, serotoninergic 5-HT7 receptors; conditions: binding assay result in %, Table 5a
T2 construct: purchased PerkinElmer
T2 sequence (P34969 whole entry): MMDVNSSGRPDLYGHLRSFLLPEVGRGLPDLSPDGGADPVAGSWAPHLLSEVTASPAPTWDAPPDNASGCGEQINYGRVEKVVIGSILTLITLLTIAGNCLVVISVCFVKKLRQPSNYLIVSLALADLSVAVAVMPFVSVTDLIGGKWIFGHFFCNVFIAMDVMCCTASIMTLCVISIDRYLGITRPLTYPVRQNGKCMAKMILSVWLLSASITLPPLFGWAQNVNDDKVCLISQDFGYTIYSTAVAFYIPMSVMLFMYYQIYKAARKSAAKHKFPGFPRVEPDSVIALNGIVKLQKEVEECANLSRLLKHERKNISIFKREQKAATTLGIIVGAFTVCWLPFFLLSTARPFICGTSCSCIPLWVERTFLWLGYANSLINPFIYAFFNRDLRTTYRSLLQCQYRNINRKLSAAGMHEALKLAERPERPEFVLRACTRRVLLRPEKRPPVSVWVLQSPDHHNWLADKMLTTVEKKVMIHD
In short: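 Competition binding at human 5-HT7 receptors with a radioligand, detected by scintillation counting; non-specific binding was defined with excess unlabelled ligand. IC50 came from Hill-equation fits of competition curves, and Ki from Cheng–Prusoff using radioligand concentration and Scatchard-derived KD.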

[2] = test system: α1 adrenergic receptors (rat cerebral cortex); test: Radioligand binding assay, adrenergic α1 receptors; conditions: test compound 1×10^−6 M
In short: (§1)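 Values derive from radioligand displacement, with non-specific binding defined by excess cold ligand and detection by scintillation. Hill-fit IC50s were converted to Ki via Cheng-Prusoff using Scatchard-derived Kd; percent inhibition of control specific binding also reported.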

M3 muscarinic receptors = target: T3, M3 muscarinic receptors (Homo sapiens, UniProt P20309); test: Radioligand binding assay, muscarinic M3 receptors; conditions: test compound 1×10^−6 M
T3 construct: expressed in transfected cells; host or cells: CHO cells
T3 sequence (P20309 whole entry): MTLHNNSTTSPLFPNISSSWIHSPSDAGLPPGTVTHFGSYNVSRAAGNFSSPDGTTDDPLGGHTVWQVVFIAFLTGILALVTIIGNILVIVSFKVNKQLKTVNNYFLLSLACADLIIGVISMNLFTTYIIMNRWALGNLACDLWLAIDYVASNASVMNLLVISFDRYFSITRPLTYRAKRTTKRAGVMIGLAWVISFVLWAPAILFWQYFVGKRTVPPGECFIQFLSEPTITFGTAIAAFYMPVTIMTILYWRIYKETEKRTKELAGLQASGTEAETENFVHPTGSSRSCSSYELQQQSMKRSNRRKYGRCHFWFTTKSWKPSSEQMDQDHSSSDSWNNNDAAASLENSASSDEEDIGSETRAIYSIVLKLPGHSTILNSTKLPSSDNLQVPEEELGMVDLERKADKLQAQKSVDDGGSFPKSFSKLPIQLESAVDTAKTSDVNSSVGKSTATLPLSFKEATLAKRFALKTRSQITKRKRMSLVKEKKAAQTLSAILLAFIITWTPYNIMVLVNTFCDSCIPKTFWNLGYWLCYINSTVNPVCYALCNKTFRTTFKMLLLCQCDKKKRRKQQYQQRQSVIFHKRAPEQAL
In short: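 Radioligand competition binding, detected by scintillation counting; non-specific binding defined with excess unlabelled ligand. Results given as % inhibition of control specific binding; IC50 from Hill-equation fit of competition curves, Ki via Cheng-Prusoff with radioligand KD from Scatchard plot.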

[3] = target: T4, serotonin transporter (SERT) (Homo sapiens, UniProt P31645); test: Radioligand binding assay, serotonin transporter (SERT); conditions: for inhibition at 1 µM: binding assay, test compound 1×10^−6 M
T4 construct: expressed in transfected cells; host or cells: CHO cells
T4 sequence (P31645 whole entry): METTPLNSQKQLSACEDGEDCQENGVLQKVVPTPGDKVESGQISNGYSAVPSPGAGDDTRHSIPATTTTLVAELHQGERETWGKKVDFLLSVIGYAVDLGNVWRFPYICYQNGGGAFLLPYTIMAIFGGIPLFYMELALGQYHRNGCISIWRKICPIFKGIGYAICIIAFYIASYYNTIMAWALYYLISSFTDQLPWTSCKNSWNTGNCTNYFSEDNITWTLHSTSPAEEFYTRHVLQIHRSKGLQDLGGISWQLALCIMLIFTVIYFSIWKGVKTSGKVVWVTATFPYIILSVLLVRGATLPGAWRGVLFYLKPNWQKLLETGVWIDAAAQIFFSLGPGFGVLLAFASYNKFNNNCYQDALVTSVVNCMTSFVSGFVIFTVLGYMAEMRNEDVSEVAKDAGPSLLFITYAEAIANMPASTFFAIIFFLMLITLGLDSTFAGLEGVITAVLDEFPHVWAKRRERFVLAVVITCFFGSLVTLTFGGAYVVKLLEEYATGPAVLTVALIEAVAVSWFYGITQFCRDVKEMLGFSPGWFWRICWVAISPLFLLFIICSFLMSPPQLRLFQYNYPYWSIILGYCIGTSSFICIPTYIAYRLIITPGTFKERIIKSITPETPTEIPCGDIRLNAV
In short: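 Radioligand competition binding with scintillation detection; specific binding is total minus binding under excess unlabelled ligand. Reported as % of control specific binding or % inhibition; IC50 from Hill-equation non-linear regression of competition curves, and Ki via Cheng-Prusoff using radioligand concentration and Scatchard-derived KD.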

σ receptors = test: Radioligand binding assay, σ receptors; conditions: rat cerebral cortex, [3H]DTG 8 nM
In short: as §1

[4] = target: 5-HT2A serotoninergic receptors (Homo sapiens, UniProt P28223); test: Cellular functional assay, 5-HT2A serotoninergic receptors; assay type: cell-based
Sequence of 5-HT2A serotoninergic receptors (P28223 whole entry): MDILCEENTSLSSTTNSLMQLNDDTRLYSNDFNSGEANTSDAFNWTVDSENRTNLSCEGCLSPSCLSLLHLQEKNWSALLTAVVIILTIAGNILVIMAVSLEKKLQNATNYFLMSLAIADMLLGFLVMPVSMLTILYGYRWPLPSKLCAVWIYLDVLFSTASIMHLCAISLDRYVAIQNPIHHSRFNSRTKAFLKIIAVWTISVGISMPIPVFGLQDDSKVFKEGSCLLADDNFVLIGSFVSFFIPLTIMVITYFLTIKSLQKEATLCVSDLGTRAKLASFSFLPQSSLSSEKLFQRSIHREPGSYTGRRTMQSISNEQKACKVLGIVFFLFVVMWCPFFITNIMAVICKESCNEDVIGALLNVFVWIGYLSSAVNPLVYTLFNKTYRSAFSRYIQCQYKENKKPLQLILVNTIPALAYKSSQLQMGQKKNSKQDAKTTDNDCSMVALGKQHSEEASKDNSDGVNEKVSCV
In short: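 Response expressed as percent of control specific agonist response; EC50 or IC50 from Hill-equation non-linear regression on mean replicate values. For antagonists, apparent Kb derived by modified Cheng-Prusoff using reference agonist concentration and its EC50.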

[5] = target: 5-HT6 serotoninergic receptors (Homo sapiens, UniProt P50406); test: Cellular functional assay, 5-HT6 serotoninergic receptors; assay type: cell-based; conditions: for 5-HT6 ag [%]: agonist mode, percent of control specific agonist response
Sequence of 5-HT6 serotoninergic receptors (P50406 whole entry): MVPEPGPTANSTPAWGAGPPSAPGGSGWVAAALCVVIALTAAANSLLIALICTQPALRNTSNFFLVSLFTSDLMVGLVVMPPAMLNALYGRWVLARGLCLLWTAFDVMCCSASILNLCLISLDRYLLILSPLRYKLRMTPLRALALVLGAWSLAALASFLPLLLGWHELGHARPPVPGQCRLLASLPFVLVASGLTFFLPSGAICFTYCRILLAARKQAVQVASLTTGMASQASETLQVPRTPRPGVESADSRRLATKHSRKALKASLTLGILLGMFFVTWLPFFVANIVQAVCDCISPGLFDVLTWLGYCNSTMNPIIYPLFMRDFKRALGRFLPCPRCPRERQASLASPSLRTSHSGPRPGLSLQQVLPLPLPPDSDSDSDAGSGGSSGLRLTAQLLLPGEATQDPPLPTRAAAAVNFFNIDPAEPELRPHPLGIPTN
Experimental: The results are expressed as a percent of control specific agonist response ((measured specific response/control specific agonist response)×100) obtained in the presence of the test compounds.
The EC50 values (concentration producing a half-maximal specific response) and IC50 values (concentration causing a half-maximal inhibition of the control specific agonist response) were determined by non-linear regression analysis of the concentration-response curves generated with mean replicate values using Hill equation curve fitting (Y=D+[(A−D)/(1+(C/C50)nH)], where Y=specific response, D=minimum specific response, A=maximum specific response, C=compound concentration, and C50=EC50 or IC50, and nH=slope factor). This analysis was performed using a software developed at Cerep (Hill software) and validated by comparison with data generated by the commercial software SigmaPlot® 4.0 for Windows® (© 1997 by SPSS Inc.).
For the antagonists, the apparent dissociation constants (Kb) were calculated using the modified Cheng Prusoff equation (Kb=IC50/(1+(A/EC50A)), where A=concentration of reference agonist in the assay, and EC50A=EC50 value of the reference agonist).

[6] = target: 5-HT7 serotoninergic receptors (Homo sapiens, UniProt P34969); test: Cellular functional assay, 5-HT7 serotoninergic receptors; assay type: cell-based; conditions: for 5-HT7 ag [%]: agonist mode, percent of control specific agonist response
Sequence of 5-HT7 serotoninergic receptors (P34969 whole entry): as the sequence (P34969 whole entry) above
In short: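 Responses expressed as percent of control specific agonist response; EC50 or IC50 from Hill-equation nonlinear fits of mean replicate concentration-response curves. For antagonists, Kb derived by modified Cheng-Prusoff using reference agonist concentration and its EC50.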

[7] = agonist mode, percent of control specific agonist response

Compound | inhibition at 1 µM [1] | inhibition at 1 µM (5-HT7 receptor) | α1 [%] [2] | inhibition at 1 µM (M3 muscarinic receptors) | inhibition at 1 µM [3] | σ [%] (σ receptors) | 5-HT2A ag [%] [4, 7] | 5-HT6 ag [%] [5] | 5-HT7 ag [%] [6] | 5-HT2A ag [%] [4] | Ki ([3]; read-out: Inhibition constants Ki for SERT, SERT) | Kb ([4]; apparent dissociation constant, modified Cheng Prusoff equation, read-out: 5-HT2A antag Kb) | Kb ([5]; apparent dissociation constant, modified Cheng Prusoff equation, read-out: 5-HT6 antag Kb) | Kb ([6]; apparent dissociation constant, modified Cheng Prusoff equation, read-out: 5-HT7 antag Kb)
O=S(=O)(NC1CCN(CCCc2noc3cc(F)ccc23)C1)c1csc2ccccc12 (stereo not shown) [Compound 26, N-[1-[3-(6-Fluoro-1,2-benzoxazol-3-yl)propyl]pyrrolidin-3-yl]-benzothiophene-3-sulphonamide] | 79% | 97% | 87% | 11% | 66% | 80% | −1% | 0% | −3% | – | – | – | – | –
O=S(=O)(NC1CCN(CCCc2noc3cc(F)ccc23)C1)c1cccc2ccccc12 (stereo not shown) [Compound 20, N-[1-[3-(6-Fluoro-1,2-benzoxazol-3-yl)propyl]pyrrolidin-3-yl]naphthalene-1-sulphonamide] | 67% | 98% | 86% | -7% | 6% | 83% | – | 1% | −2% | 0% | – | – | – | –
O=S(=O)(NC1CCN(CCCc2c[nH]c3ccc(F)cc23)C1)c1ccc2ccccc2c1 (stereo not shown) [Compound 80, N-[1-[3-(5-Fluoro-1H-indol-3-yl)propyl]pyrrolidin-3-yl]naphthalene-2-sulphonamide] | 98% | 93% | 50% | 2% | 104% | 81% | – | 9% | 3% | 34% | 0.5 nM | – | – | –
O=S(=O)(N[C@@H]1CCN(CCCc2noc3cc(F)ccc23)C1)c1csc2ccccc12 [Compound 224, N-[(3R)-1-[3-(6-Fluoro-1,2-benzoxazol-3-yl)propyl]pyrrolidin-3-yl]benzothiophene-3-sulphonamide] | 76% | 103% | 89% | 25% | 64% | 91% | −2% | −1% | −1% | – | – | – | – | –
O=S(=O)(NCC1CCN(CCCc2noc3cc(F)ccc23)C1)c1ccc2ccccc2c1 (stereo not shown) [Compound 240, N-[[1-[3-(6-Fluoro-1,2-benzoxazol-3-yl)propyl]pyrrolidin-3-yl]methyl]-naphthalene-2-sulphonamide] | 30% | 90% | 86% | 21% | 43% | 92% | – | 4% | 0% | −1% | – | – | – | –
O=S(=O)(NC1CCN(CCCc2noc3cc(F)ccc23)C1)c1cc2ccccc2o1 (stereo not shown) [Compound 216, N-[1-[3-(6-Fluoro-1,2-benzoxazol-3-yl)propyl]pyrrolidin-3-yl]benzofuran-2-sulphonamide] | 35% | 99% | 84% | 28% | 53% | 88% | −2% | −5% | −5% | – | – | – | – | –
O=S(=O)(N[C@@H]1CCN(CCCc2noc3cc(F)ccc23)C1)c1cc2ccccc2o1 [Compound 214, N-[(3R)-1-[3-(6-Fluoro-1,2-benzoxazol-3-yl)propyl]pyrrolidin-3-yl]benzo-furan-2-sulphonamide] | 34% | 98% | 91% | 11% | 15% | 84% | −2% | −4% | −1% | – | – | – | – | –
O=S(=O)(NC1CCN(CCCc2noc3cc(F)ccc23)C1)c1cc2ccccc2s1 (stereo not shown) [Compound 25, N-[1-[3-(6-Fluoro-1,2-benzoxazol-3-yl)propyl]pyrrolidin-3-yl]-benzothiophene-2-sulphonamide] | 74% | 98% | 85% | 23% | 42% | 70% | – | 0% | −2% | −2% | – | 4.7 nM | 10 nM | 1.4 nM
Cc1ccc2sc(S(=O)(=O)NC3CCN(CCCc4noc5cc(F)ccc45)C3)cc2c1 (stereo not shown) [Compound 226, N-[1-[3-(6-Fluoro-1,2-benzoxazol-3-yl)propyl]pyrrolidin-3-yl]-5-methylbenzothiophene-2-sulphonamide] | 43% | 91% | 73% | 8% | 54% | 82% | −1% | −5% | −2% | – | – | – | – | –
Cc1cc(S(=O)(=O)N[C@H]2CCN(CCCc3noc4cc(F)ccc34)C2)c(C)s1 [Compound 223, N-[(3S)-1-[3-(6-Fluoro-1,2-benzoxazol-3-yl)propyl]pyrrolidin-3-yl]-2,5-dimethyl-thiophene-3-sulphonamide] | 49% | 100% | 86% | 25% | 17% | 89% | – | −1% | 0% | 0% | – | – | – | –
O=S(=O)(NC1CCN(CCCc2noc3cc(F)ccc23)C1)c1ccc2cc(Cl)ccc2c1 (stereo not shown) [Compound 23, 6-Chloro-N-[1-[3-(6-fluoro-1,2-benzoxazol-3-yl)propyl]pyrrolidin-3-yl]naphthalene-2-sulphonamide] | 24% | 95% | 64% | 10% | 53% | 61% | −2% | −1% | −2% | – | – | – | – | –
